Measurements published in patent publication US9241941B2, “Methods for treatment of lymphomas with mutations in cell cycle genes” (priority 2012, dated 2016).

Legend:
[1] = system: cell lines that carry the translocation t(14;18) (DoHH2, Su-DHL-6, Su-DHL-16, Ly8); assay: Viability / apoptosis of human lymphoma lines after in vitro treatment; type: cell-based; settings: for induction of apoptosis / cell death in vitro, single agent: FL-derived cell lines, 1 μM; for selectivity for cell lines carrying translocation t(14;18): panel of human lymphoma lines, viability after 24 h
Protocol: Cell culture, cell cycle and viability assays. Lymphoma cell lines DoHH2, Ly-8, Su-DHL-6, Su-DHL-16, Su-DHL-8 and Su-DHL-10 were maintained in RPMI 1640 with 10% fetal bovine serum, 1% L-Glutamine and 1% penicillin/streptomycin. […] Briefly, cells were seed at 5×10^5 per mL and they were treated with PD-0332991 and/or ABT-737 and/or Obatoclax. After 24 h of treatment cell viability was assessed using CellTiter-Glo reagent (Promega).

xenografted DoHH2 tumors = assay: DoHH2 xenograft treatment study; type: in vivo, NOD/SCID mice; settings: for course of tumors after the treatment course / durability of response / tumor growth during the treatment course: PD 150 mg/kg p.o., ABT 50 mg/kg i.v., alternate days, days 1-14
Protocol: Xenografts and treatment studies. Xenograft mice were generated as described (Schatz et al., J Exp Med 208:1799-1807 (2011)); briefly, s.c. injection of 5 Mio DoHH2 or SU-DHL-8 human lymphoma cells mixed with matrigel (BD Bioscience, 354230) into the flanks of NOD/SCID (NOD.CB17-Prkdc^scid/J) mice. […] The control animals were treated with 50 mmol/L sodium lactate (pH4), PTD solution and 5% of Dextrose in water solution respectively. Tumors were weighed and volumes were measured twice weekly.
The translocation t(14;18) is the cytogenetic hallmark of FL and promotes lymphoma cell survival by activating the anti-apoptotic BCL2 protein. BH3 mimetic drugs like ABT-737 block BCL2 function by inserting into the BH3-binding groove of anti-apoptotic BCL2 proteins (Oltersdorf et al., Nature 435:677-681 (2005)).

[2] = system: DoHH2, Su-DHL6, Su-DHL-16, and Ly8 cells; assay: Cell cycle assay in human lymphoma cell lines; type: cell-based
Protocol: Cell culture, cell cycle and viability assays. Lymphoma cell lines DoHH2, Ly-8, Su-DHL-6, Su-DHL-16, Su-DHL-8 and Su-DHL-10 were maintained in RPMI 1640 with 10% fetal bovine serum, 1% L-Glutamine and 1% penicillin/streptomycin. Human lymphoma cell lines treated with PD-0332991 and Obatoclax were analyzed for cell viability and cell cycle assays. Briefly, cells were seed at 5×10^5 per mL and they were treated with PD-0332991 and/or ABT-737 and/or Obatoclax. After 24 h of treatment cell viability was assessed using CellTiter-Glo reagent (Promega). Cell cycle assay based on uptake of DNA staining dye using Cell Cycle Reagent assays (cat. 4700-0169 from Guava Technologies, Millipore) was performed following to manufacturer instructions.

[3] = system: RB phosphorylation (Ser 780); assay: Immunoblot for RB phosphorylation in treated lymphoma cells; type: cell-based, human; settings: DoHH2, Su-DHL6, Su-DHL-16, Ly8 cells treated with PD-0332991
Protocol: Western blot analysis. Immunoblots were performed from whole cell lysates or tissue samples as described (Steidl et al., Nature 471:377-381 (2011)). Briefly, 30 μg of protein/sample were resolved on SDS-PAGE gels and transferred to Immobilon-P-membranes (Millipore). Antibodies were against Rb (Cell Signaling cat #9309), Phospho-Rb S780 (Cell Signaling cat #3590), Phospho-Rb S795 (Cell Signaling cat #7986), CDK4 (Cell Signaling cat #2906), CyclinD3 (Cell Signaling cat #2936), Cyclin D1 (Cell Signaling cat #2926), Cyclin D2 (Cell Signaling cat #2924) p16 (Santa Cruz Biotechnology cat # sc 1207), Caspase 3 (Cell Signaling cat #9662) Tubulin (1:5000; Sigma, B-5-1-2). Enhanced chemiluminescence was used for detection (ECL, Amersham).

vavBcl2/CDK4 lymphoma = assay: Treatment of primary murine vavBcl2/CDK4 lymphomas in vivo; settings: lymphocyte counts
vavBcl2/c-MYC lymphomas = assay: Treatment of primary murine vavBcl2/c-MYC lymphomas in vivo
Protocol: Generation of mice. The vavP Bcl2 mouse model of FL (Lowe et al., Nature 432:307-315 (2004)) was adapted to adoptive transfer of retrovirally transduced HPCs^1. Data were analyzed in Kaplan-Meier format using the log-rank (Mantel-Cox) test for statistical significance. H&E, Ki67, TUNEL, P-RB, and surface marker analysis were as in (Staudt, N Engl J Med 356:741-742 (2007)).
Most FL cell lines are derived from transformed FLs and are carry the hallmark translocation t(14;18). These include DoHH2, Su-DHL-6, Su-DHL-16 and Ly 8 cells. These lines also have high levels of CDK4, CDK6, and phosphorylated RB (S780 and S795) (FIG. 10A) and DoHH2 cells carry a homozygous p16 deletion (Gronbaek et al., Leukemia 14:1727-1735 (2000)). To examine the effect of targeted therapies, the inventors first treated DoHH2, Su-DHL6, Su-DHL-16, and Ly8 cells with increasing doses of PD-0332991. […] Further, knockdown of either CDK4 or CDK6 alone was not sufficient for cell cycle arrest indicating functional compensation between these homologous RB kinases and the requirement to block both (FIG. 10I/J). Given the limitations of transformed FL-derived lines, the inventors also tested PD-0332991 against primary murine vavBcl2 induced lymphomas in vivo.

| Structure (SMILES) | induction of apoptosis / cell death in vitro, single agent [1] | selectivity for cell lines carrying translocation t(14;18) [1] | course of tumors after the treatment course / durability of response (xenografted DoHH2 tumors) | tumor growth during the treatment course (xenografted DoHH2 tumors) | cell death in tumors in vivo (caspase cleavage, TUNEL) (xenografted DoHH2 tumors; tumors at end of treatment) | cell cycle arrest after RB knockdown ([2]; DoHH2 cells expressing RB shRNA, PD-0332991 1 μM) | growth and cell cycle profile ([2]; increasing doses of PD-0332991, 24 h, all four lines) | RB phosphorylation in cells [3] | RB phosphorylation (Ser 780) in tumors in vivo (xenografted DoHH2 tumors; immunoblot on lysates of treated tumors) | proliferation by Ki67 in tumors in vivo (xenografted DoHH2 tumors; immunohistochemistry at end of treatment) | response of lymphoma bearing animals (vavBcl2/CDK4 lymphoma) | response of lymphoma bearing animals (vavBcl2/c-MYC lymphomas; histologically transformed vavBcl2/c-MYC lymphomas) | time by which all animals succumbed to disease (vavBcl2/c-MYC lymphomas; vav-Bcl2/Myc tumor bearing animals treated with PD-0332991) |
| --- | --- | --- | --- | --- | --- | --- | --- | --- | --- | --- | --- | --- | --- |
| COC1=CC(c2cc3ccccc3[nH]2)=N/C1=C\c1[nH]c(C)cc1C [Obatoclax] | potently induced cell death | less selective for cells carrying the translocation t(14;18) |  |  |  |  |  |  |  |  |  |  |  |
| CN(C)CC[C@H](CSc1ccccc1)Nc1ccc(S(=O)(=O)NC(=O)c2ccc(N3CCN(Cc4ccccc4-c4ccc(Cl)cc4)CC3)cc2)cc1[N+](=O)[O-] [ABT-737] | powerfully induced apoptosis and caspase cleavage | selective activity against cell lines that carry the translocation t(14;18) | residual tumors rapidly expanded thereafter | somewhat restrained tumor growth | significant cell death |  |  |  |  |  |  |  |  |
| CC(=O)c1c(C)c2cnc(Nc3ccc(N4CCNCC4)cn3)nc2n(C2CCCC2)c1=O [PD-0332991] |  |  | residual tumors rapidly expanded thereafter | somewhat restrained tumor growth |  | knockdown of RB bypassed the cell cycle arrest | complete growth arrest and accumulation in the G1 phase | loss of RB phosphorylation | complete loss of RB phosphorylation (Ser 780) | slowed proliferation by Ki67 | induced responses | ineffective | ≤ 10 days |
